Data: patent publication US9624224B2, “Inhibitors of Bruton's tyrosine kinase” (Pharmacyclics LLC, priority 2013, dated 2017)
pIC50: −log10 of the molar value.

Tests used:
Type in all cases: biochemical
BTK = molecular target: T1, BTK (Homo sapiens, UniProt Q06187); experiment: Btk in vitro inhibitory activity (TR-FRET, mobility shift or radiometric filter binding kinase assay); conditions: determined using one of the methods outlined in Example 47a, 47b, and 47c
T1 construct: purified from insect cells as a full-length construct containing a N-terminal 6×-His tag; His6 (N); made in house; host or cells: insect cells (baculovirus, Sf21)
T1 sequence (Q06187 whole entry): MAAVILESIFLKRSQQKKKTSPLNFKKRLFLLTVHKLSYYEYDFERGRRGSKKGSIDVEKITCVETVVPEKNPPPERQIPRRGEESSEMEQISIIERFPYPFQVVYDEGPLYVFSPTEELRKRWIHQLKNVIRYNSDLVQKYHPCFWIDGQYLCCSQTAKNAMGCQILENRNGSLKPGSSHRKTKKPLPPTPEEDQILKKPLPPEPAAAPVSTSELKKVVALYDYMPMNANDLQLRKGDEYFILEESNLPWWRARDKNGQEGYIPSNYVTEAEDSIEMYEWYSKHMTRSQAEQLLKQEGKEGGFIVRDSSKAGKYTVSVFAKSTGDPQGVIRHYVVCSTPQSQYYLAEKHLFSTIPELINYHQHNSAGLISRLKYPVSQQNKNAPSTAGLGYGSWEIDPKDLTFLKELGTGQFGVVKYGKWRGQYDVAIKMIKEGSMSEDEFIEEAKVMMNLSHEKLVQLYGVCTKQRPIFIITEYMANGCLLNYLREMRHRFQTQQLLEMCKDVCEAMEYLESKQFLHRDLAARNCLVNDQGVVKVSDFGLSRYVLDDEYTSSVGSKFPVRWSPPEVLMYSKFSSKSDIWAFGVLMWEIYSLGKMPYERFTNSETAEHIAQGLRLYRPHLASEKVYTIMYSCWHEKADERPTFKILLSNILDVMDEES
Method in brief: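 Full-length N-His-tagged human Btk from insect cells, 8 nM, preincubated 15 min with inhibitor and 0.2 mg/mL poly-Glu-Tyr (4:1) in pH 7.5 Hepes/MgCl2 buffer, then 1 μM ATP for 120 min at RT; radiometric P81 filter read-out. Alternatives: TR-FRET at [ATP]=Km (0.5 nM Btk, IC50 from Ki(app)) or mobility-shift PSR with 12-point 3× curves, 4-parameter fit.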

Jak3 = molecular target: T2, Jak3 (Homo sapiens, UniProt P52333); experiment: Jak3 kinase inhibition (in vitro kinase assay)
T2 sequence (P52333 1-1124): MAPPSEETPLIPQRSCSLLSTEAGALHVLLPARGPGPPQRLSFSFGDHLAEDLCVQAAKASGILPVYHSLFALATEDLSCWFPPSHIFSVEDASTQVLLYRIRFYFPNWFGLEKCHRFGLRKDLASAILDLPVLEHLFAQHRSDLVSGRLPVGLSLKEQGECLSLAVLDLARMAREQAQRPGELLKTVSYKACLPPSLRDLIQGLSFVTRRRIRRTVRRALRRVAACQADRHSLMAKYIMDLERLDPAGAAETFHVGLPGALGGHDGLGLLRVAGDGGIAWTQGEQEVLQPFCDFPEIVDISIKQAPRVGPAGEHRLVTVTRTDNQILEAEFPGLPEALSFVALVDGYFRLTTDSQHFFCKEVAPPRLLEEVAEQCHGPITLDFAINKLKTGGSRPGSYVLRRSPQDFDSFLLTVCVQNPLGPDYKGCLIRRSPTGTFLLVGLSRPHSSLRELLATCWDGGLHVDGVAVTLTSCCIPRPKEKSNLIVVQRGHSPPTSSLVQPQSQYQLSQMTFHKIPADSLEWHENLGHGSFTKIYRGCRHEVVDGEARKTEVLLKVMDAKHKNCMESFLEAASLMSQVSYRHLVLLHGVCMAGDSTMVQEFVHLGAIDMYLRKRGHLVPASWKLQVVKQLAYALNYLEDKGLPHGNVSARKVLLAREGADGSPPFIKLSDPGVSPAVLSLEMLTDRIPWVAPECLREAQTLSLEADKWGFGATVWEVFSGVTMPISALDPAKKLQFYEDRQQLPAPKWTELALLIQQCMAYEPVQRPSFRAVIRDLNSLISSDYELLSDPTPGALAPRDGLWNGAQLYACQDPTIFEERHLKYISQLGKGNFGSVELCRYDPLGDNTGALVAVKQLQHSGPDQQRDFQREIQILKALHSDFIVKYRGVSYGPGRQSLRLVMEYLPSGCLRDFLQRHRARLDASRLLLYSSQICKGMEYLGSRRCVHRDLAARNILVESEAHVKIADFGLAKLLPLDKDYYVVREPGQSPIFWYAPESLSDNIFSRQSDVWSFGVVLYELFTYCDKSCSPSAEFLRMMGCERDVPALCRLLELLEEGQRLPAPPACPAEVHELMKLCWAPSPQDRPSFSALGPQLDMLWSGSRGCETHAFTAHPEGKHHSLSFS

Lck = Lck (Homo sapiens, UniProt P06239); experiment: Lck kinase inhibition (in vitro kinase assay)
Chain of Lck (P06239 whole entry, species assumed): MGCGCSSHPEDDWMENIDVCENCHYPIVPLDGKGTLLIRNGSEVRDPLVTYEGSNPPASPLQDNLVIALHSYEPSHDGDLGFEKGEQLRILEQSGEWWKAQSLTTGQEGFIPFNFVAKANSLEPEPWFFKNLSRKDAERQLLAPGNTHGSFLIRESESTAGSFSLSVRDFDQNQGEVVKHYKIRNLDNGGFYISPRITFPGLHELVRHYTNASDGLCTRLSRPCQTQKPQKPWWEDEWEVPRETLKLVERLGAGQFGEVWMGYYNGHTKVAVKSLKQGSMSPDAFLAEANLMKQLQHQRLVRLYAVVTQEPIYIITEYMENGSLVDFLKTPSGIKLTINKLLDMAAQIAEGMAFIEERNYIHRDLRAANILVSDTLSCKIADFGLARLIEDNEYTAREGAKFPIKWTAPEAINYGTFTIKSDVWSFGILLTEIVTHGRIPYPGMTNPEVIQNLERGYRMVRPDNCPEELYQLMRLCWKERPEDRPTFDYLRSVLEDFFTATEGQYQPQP
Method in brief: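 TR-FRET kinase assay at [ATP]=Km^ATP, detected with Eu-anti-pTyr antibody and streptavidin-APC after EDTA quench; 665/615 nm ratio read. Ki(app) fitted across compound concentrations, converted to IC50 via IC50={Ki(app)/(1+[ATP]/Km^ATP)}+[E]total/2; [Lck]total=6 nM.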

EGFR = EGFR (Homo sapiens, UniProt P00533); experiment: EGFR kinase inhibition (in vitro kinase assay)
Chain of EGFR (P00533 25-1210, species assumed): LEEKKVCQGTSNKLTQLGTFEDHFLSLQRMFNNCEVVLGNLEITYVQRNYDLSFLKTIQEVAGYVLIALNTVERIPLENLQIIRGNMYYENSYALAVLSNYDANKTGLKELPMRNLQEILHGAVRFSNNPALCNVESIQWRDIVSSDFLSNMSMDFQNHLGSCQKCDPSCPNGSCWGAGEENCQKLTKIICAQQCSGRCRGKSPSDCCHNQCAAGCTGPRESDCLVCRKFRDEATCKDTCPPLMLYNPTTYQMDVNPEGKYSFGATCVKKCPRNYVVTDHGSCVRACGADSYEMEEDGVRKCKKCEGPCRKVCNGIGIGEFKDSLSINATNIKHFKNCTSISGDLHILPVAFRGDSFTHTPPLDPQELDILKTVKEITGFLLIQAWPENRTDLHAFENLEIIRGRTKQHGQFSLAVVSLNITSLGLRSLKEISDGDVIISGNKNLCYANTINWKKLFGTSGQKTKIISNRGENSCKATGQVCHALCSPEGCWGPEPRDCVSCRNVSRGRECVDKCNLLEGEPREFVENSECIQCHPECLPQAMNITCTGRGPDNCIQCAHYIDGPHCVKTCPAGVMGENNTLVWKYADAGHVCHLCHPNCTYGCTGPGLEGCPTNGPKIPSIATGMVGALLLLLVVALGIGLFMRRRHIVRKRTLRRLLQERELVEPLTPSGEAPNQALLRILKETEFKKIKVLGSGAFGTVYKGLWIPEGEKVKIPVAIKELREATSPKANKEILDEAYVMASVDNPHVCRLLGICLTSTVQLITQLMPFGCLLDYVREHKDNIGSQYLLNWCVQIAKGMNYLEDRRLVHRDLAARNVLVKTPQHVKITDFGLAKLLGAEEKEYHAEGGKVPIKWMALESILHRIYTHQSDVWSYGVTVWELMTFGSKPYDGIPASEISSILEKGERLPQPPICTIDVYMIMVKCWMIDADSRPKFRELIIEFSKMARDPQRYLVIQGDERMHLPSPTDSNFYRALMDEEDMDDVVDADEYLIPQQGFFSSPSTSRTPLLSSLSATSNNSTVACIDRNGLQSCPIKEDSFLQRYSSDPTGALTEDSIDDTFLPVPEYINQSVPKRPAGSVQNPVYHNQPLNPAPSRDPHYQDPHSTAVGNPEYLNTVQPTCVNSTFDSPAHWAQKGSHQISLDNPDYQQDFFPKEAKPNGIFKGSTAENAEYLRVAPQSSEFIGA

pIC50 (BTK)	pIC50 (Jak3)	pIC50 (Lck)	pIC50 (EGFR)	Structure (SMILES)
> 7.00	< 5.00	< 5.00	6.00 to 7.00	Cc1ccnc(NC(=O)c2ccc(-c3nn([C@H]4CC[C@H](NC(=O)/C=C/CN(C)C5CC5)CC4)c4ncnc(N)c34)cc2)c1 [Example 29, 4-(4-amino-1-((1,4-trans)-4-((E)-4-(cyclopropyl(methyl)amino)but-2-enamido)cyclohexyl)-1H-pyrazolo[3,4-d]pyrimidin-3-yl)-N-(4-methylpyridin-2-yl)benzamide]
> 7.00	> 9.00	> 9.00	> 9.00	CN(C/C=C/C(=O)N1CC[C@@H](n2nc(-c3ccc(C(=O)Nc4ncc(C5CC5)s4)cc3)c3c(N)ncnc32)C1)C1CC1 [Example 7, (R,E)-4-(4-amino-1-(1-(4-(cyclopropyl(methyl)amino)but-2-enoyl)pyrrolidin-3-yl)-1H-pyrazolo[3,4-d]pyrimidin-3-yl)-N-(5-cyclopropylthiazol-2-yl)benzamide]
